{
  "source": "paper PMC5537066",
  "about": "“Dimerization facilitates the conformational transitions for bacterial phosphotransferase enzyme I autophosphorylation in an allosteric manner” (FEBS Open Bio, 2017)",
  "experiment_in_all_cases": "isothermal titration calorimetry",
  "format_in_all_cases": "binding",
  "conditions_in_all_cases": "read-out: K D (μS)",
  "key": {"EIC (EIC(G356S))": {"biological_target": "T1, EIC (EIC(G356S)) (Escherichia coli, UniProt P08839, G356S)", "T1 construct": "gene ptsI; pET11 or pET15b with N-terminal His6 tag; E. coli BL21star(DE3)"}, "EI (EIA, EIA(G356S))": {"biological_target": "T2, EI (EIA, EIA(G356S)) (Escherichia coli, UniProt P08839, G356S/H189A)", "T2 construct": "gene ptsI; full length 1-575; pET11 or pET15b with N-terminal His6 tag; E. coli BL21star(DE3); dimer with PEP", "excerpt": "isothermal titration calorimetry on EI (EIA, EIA(G356S))"}, "EIA^ΔEINα (G356S)": {"biological_target": "T3, EIA^ΔEINα (G356S) (Escherichia coli, UniProt P08839, DEL22-145/G356S/H189A)", "T3 construct": "gene ptsI; EI(1-21, 146-575), EINalpha subdomain deleted; pET11 or pET15b with N-terminal His6 tag; E. coli BL21star(DE3)", "excerpt": "isothermal titration calorimetry on EIA^ΔEINα (G356S)"}},
  "data": [
    {"smiles": "C=C(OP(=O)(O)O)C(=O)O", "note": "[PEP]", "values": [
      {"measurement": "Kd", "setting": "EIC (EIC(G356S))", "result": "310 ± 100", "unit": "µM"},
      {"measurement": "Kd", "setting": "EI (EIA, EIA(G356S))", "result": "14 ± 0.9", "unit": "µM"},
      {"measurement": "Kd", "setting": "EIA^ΔEINα (G356S)", "result": "1.3 ± 0.1", "unit": "µM"}
    ]}
  ]
}
